Measured values reported in patent publication US11214578B2, “Urea/carbamates FAAH MAGL or dual FAAH/MAGL inhibitors and uses thereof” (Northeastern University, priority 2014, dated 2022).

Legend:
Assay type in all cases: biochemical
[1] = biological target: T1, ΔTM rat FAAH (Rattus norvegicus, UniProt P97612); assay: Fluorescent assay protocol for ΔTM rat FAAH (AAMCA substrate); settings: 15 min preincubation, read-out: IC50 rFAAH
T1 construct: Preparation of Transmembrane Domain-Deleted Rat FAAH (ΔTM rFAAH); made in house; host or cells: E. coli
T1 sequence (P97612 30-579 limits assumed): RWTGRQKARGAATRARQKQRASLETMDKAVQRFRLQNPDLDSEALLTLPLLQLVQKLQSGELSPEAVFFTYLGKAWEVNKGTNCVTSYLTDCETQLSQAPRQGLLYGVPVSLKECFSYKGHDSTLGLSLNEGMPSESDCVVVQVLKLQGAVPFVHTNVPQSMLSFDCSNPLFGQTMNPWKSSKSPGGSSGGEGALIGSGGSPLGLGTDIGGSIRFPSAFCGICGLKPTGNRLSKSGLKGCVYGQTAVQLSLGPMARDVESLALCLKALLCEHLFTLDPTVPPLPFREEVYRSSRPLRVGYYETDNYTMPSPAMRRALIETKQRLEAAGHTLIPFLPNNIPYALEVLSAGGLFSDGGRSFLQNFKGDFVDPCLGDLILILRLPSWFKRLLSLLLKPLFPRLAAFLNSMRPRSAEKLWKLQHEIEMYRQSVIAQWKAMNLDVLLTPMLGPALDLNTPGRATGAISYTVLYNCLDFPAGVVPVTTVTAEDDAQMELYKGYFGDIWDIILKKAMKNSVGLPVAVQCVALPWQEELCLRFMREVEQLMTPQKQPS
How it was run: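 ΔTM rat FAAH (15 μg) was pre-incubated 15 min at 25° C with compound (screening at 1, 10 and 100 μM), then reacted with the fluorigenic substrate AAMCA. Percent inhibition came from fluorescence at 3 h (linear kinetics) relative to no-inhibitor controls, in triplicate.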

[2] = biological target: T2, Human MAGL (hMAGL) (Homo sapiens, UniProt Q99685); assay: Fluorescent assay protocol for hMAGL (AHMMCE substrate); settings: recombinant human MAGL, AHMMCE substrate, 15 min preincubation; read-out: IC50 hMAGL
T2 construct: hexahistidine; made in house; host or cells: E. coli
T2 sequence (Q99685 1-303): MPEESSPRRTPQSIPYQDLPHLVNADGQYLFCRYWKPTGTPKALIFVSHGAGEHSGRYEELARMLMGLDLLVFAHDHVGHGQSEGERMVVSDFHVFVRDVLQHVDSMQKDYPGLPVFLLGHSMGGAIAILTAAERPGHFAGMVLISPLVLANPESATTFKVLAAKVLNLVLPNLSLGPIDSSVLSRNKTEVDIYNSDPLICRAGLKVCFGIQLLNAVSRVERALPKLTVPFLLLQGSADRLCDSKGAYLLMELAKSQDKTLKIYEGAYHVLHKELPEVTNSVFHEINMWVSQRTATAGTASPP
How it was run: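 Hydrolysis of AHMMCE by human MAGL was monitored at 25°C for 120 min, with fluorescence at 360/460 nm recorded every 15 min and converted to 4-methylcoumarin using external standards. IC50 values were derived from triplicate wells at each inhibitor concentration.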

[3] = biological target: T3, Human FAAH (MBPΔTMhFAAH) (Homo sapiens, UniProt O00519); assay: Fluorescent assay protocol for hFAAH; settings: human FAAH (MBP fusion, ΔTM), procedure as for rFAAH
T3 construct: made in house; host or cells: E. coli (pMALcE4 vector)
T3 sequence (O00519 30-579 limits assumed): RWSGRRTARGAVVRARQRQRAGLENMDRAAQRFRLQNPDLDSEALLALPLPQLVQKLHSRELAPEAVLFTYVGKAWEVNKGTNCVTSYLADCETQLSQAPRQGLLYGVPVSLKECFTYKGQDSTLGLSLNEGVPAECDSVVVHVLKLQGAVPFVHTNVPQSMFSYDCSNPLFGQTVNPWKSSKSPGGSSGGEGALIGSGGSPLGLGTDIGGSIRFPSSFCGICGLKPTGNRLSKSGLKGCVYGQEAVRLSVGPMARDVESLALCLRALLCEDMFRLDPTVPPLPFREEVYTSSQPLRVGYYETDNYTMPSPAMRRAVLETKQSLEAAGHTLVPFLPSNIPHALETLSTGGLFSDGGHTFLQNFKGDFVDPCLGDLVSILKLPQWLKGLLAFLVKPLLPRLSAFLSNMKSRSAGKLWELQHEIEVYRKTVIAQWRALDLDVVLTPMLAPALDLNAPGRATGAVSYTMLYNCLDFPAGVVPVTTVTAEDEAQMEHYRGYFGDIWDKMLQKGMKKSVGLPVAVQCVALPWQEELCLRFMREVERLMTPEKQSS
How it was run: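 MBP-fused ΔTM human FAAH from E. coli, pre-incubated 15 min at 25 °C with compound in 50 mM HEPES, 1 mM EDTA, 0.1% BSA, pH 7.4 (DMSO below 8%). Substrate AAMCA 20 μM (2×Km); fluorescence (ex 360/em 460) at 3 h gave % inhibition vs uninhibited control, triplicate, IC50 fitted.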

[4] = biological target: T4, Rat MAGL (rMAGL) (Rattus norvegicus, UniProt Q8R431); assay: Fluorescent assay protocol for rMAGL; settings: recombinant rat MAGL, procedure as for hMAGL; read-out: IC50 rMAGL
T4 construct: made in house; host or cells: E. coli
T4 sequence (Q8R431 1-303): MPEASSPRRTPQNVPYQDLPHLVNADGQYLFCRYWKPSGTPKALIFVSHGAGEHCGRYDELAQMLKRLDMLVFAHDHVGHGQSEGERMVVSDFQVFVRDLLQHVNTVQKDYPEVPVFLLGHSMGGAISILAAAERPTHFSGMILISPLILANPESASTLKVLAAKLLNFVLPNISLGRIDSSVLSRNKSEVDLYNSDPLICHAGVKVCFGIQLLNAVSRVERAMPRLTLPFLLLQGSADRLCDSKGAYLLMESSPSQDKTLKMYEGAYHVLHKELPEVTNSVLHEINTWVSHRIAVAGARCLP
How it was run: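 Rat MAGL run as for the human enzyme: AHMMCE substrate hydrolysis to fluorescent coumarin followed at 25° C. for 120 min, read every 15 min at 360/460 nm.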

| SMILES | IC50 [1] [µM] | IC50 [2] [µM] | IC50 [3] [µM] | IC50 [4] [µM] |
| --- | --- | --- | --- | --- |
| N#Cc1ccc(F)c(OC(=O)N2CCC(OC(c3ccccc3)c3ccccc3)CC2)c1 [Example 56, 5-cyano-2-fluorophenyl 4-(benzhydryloxy)piperidine-1-carboxylate] | 0.11 to 1 | 0.11 to 1 | 0.11 to 1 | 0.11 to 1 |
| O=C(Oc1cccc(Cl)n1)N1CCC(OC(c2ccccc2)c2ccccc2)CC1 [Example 57, 6-chloropyridin-2-yl 4-(benzhydryloxy)piperidine-1-carboxylate] | > 1 | 0.01 to 0.1 | > 1 | 0.01 to 0.1 |
| N#Cc1cccc(OC(=O)N2CCC(S(=O)(=O)c3ccc(Br)cc3)CC2)c1 [Example 59, 3-Cyanophenyl 4-(4-bromophenylsulfonyl)piperidine-1-carboxylate] | 0.11 to 1 | 0.01 to 0.1 | 0.01 to 0.1 | 0.01 to 0.1 |
| N#Cc1ccc(F)c(OC(=O)N2CCC(S(=O)(=O)c3ccc(Br)cc3)CC2)c1 [Example 60, 5-Cyano-2-fluorophenyl 4-(4-bromophenylsulfonyl)piperidine-1-carboxylate] | 0.11 to 1 | 0.01 to 0.1 | 0.01 to 0.1 | 0.01 to 0.1 |
| Cc1ccc(C#N)cc1OC(=O)N1CCC(S(=O)(=O)c2ccc(Br)cc2)CC1 [Example 61, 5-Cyano-2-methylphenyl 4-(4-bromophenylsulfonyl)piperidine-1-carboxylate] | 0.01 to 0.1 | > 1 | 0.01 to 0.1 | 0.01 to 0.1 |
| COc1ccc(C#N)cc1OC(=O)N1CCC(S(=O)(=O)c2ccc(Br)cc2)CC1 [Example 62, 5-Cyano-2-methoxyyphenyl 4-(4-bromophenylsulfonyl)piperidine-1-carboxylate] | 0.01 to 0.1 | > 1 | 0.01 to 0.1 | 0.01 to 0.1 |
| O=C(Oc1c(F)cccc1F)N1CCC(S(=O)(=O)c2ccc(Br)cc2)CC1 [Example 63, 2,6-Difluorophenyl 4-(4-bromophenylsulfonyl)piperidine-1-carboxylate] | > 1 | 0.11 to 1 | > 1 | 0.11 to 1 |
| Cc1ccc(S(=O)(=O)N2CCN(C(=O)Oc3ccc(Br)cc3)CC2)cc1 [Example 64, 4-bromophenyl 4-tosylpiperazine-1-carboxylate] | > 1 | 0.01 to 0.1 | > 1 | 0.01 to 0.1 |
| Cc1ccc(S(=O)(=O)N2CCN(C(=O)Oc3c(F)cccc3F)CC2)cc1 [Example 65, 2,6-difluorophenyl 4-tosylpiperazine-1-carboxylate] | > 1 | 0.11 to 1 | > 1 | 0.11 to 1 |
| Cc1ccc(S(=O)(=O)N2CCN(C(=O)Oc3ccc(-c4ccc(F)cc4)cc3O)CC2)cc1 [Example 66, 4′-fluoro-3-hydroxy-[1,1′-biphenyl]-4-yl 4-tosylpiperazine-1-carboxylate] | > 1 | 0.01 to 0.1 | > 1 | 0.01 to 0.1 |
| O=C(Nc1cccc(N2CCS(=O)(=O)CC2)c1)N1CCN(c2ccccc2)CC1 [Example 67, N-(3-(1,1-dioxidothiomorpholino)phenyl)-4-phenylpiperazine-1-carboxamide] | > 1 | 0.01 to 0.1 | > 1 | 0.01 to 0.1 |
| O=C(Nc1cccc(N2CCS(=O)(=O)CC2)c1)N1CCC(c2ccccc2)CC1 [Example 68, N-(3-(1,1-dioxidothiomorpholino)phenyl)-4-phenylpiperidine-1-carboxamide] | > 1 | 0.11 to 1 | > 1 | 0.11 to 1 |
| O=C(Oc1cccc(N2CCS(=O)(=O)CC2)c1)N1CCN(c2ccccc2)CC1 [Example 69, 3-(1,1-dioxidothiomorpholino)phenyl 4-phenylpiperazine-1-carboxylate] | 0.11 to 1 | 0.01 to 0.1 | 0.11 to 1 | 0.01 to 0.1 |
| O=C(Oc1cccc(N2CCS(=O)(=O)CC2)c1)N1CCC(c2ccccc2)CC1 [Example 70, 3-(1,1-Dioxothiomorpholin-4-yl)phenyl 4-phenylpiperidine-1-carboxylate] | 0.11 to 1 | 0.11 to 1 | 0.11 to 1 | 0.11 to 1 |
| O=C(Oc1cccc(N2CCS(=O)(=O)CC2)c1)N1CCN(Cc2cccc(Oc3ccccc3)c2)CC1 [Example 71, 3-(1,1-dioxidothiomorpholino)phenyl 4-(3-phenoxybenzyl)piperazine-1-carboxylate] | 0.11 to 1 | 0.01 to 0.1 | 0.11 to 1 | 0.01 to 0.1 |
| O=C(Oc1cccc(N2CCS(=O)(=O)CC2)c1)N1CCN(Cc2ccc3ccccc3n2)CC1 [Example 72, 3-(1,1-dioxidothiomorpholino)phenyl 4-(quinolin-2-ylmethyl)piperazine-1-carboxylate] | 0.11 to 1 | 0.11 to 1 | 0.11 to 1 | 0.11 to 1 |
| CC1CN(c2ccccc2)CCN1C(=O)Oc1cccc(N2CCS(=O)(=O)CC2)c1 (stereo not drawn) [Example 73, 3-(1,1-dioxidothiomorpholino)phenyl 2-methyl-4-phenylpiperazine-1-carboxylate] | > 1 | 0.01 to 0.1 | > 1 | 0.01 to 0.1 |
| N#Cc1cccc(OC(=O)N2CC(OCc3ccc(Cl)cc3)C2)c1 [Example 74, 3-Cyanophenyl 3-(4-chlorobenzyloxy)azetidine-1-carboxylate] | 0.01 to 0.1 | 0.11 to 1 | 0.01 to 0.1 | > 1 |
| O=C(Oc1cccc(C(F)(F)F)c1)N1CC(OCc2ccc(Cl)cc2)C1 [Example 75, 3-(Trifluoromethyl)phenyl 3-(4-chlorobenzyloxy)azetidine-1-carboxylate] | 0.01 to 0.1 | 0.11 to 1 | 0.01 to 0.1 | > 1 |
| O=C(Oc1cccc(Br)c1)N1CC(OCc2ccc(Cl)cc2)C1 [Example 76, 3-Bromophenyl 3-(4-chlorobenzyloxy)azetidine-1-carboxylate] | 0.01 to 0.1 | 0.11 to 1 | 0.01 to 0.1 | 0.11 to 1 |
| NC(=O)c1cccc(OC(=O)N2CC(OCc3ccc(Cl)cc3)C2)c1 [Example 77, 3-Carbamoylphenyl 3-(4-chlorobenzyloxy)azetidine-1-carboxylate] | 0.01 to 0.1 | 0.11 to 1 | 0.01 to 0.1 | 0.11 to 1 |
